Where two headings read alike, the source gives them in different places. Values belong to the compound of their own block, whether it stands above or below them.
Tests used:
collagenase = assay: Collagenase inhibition, modified spectrophotometric method; assay type: biochemical
Description: (§1) All plant samples were macerated using 80% ethanol at room temperature for 5 days. Subsequently, filter paper was used to filter the samples, and the remaining filtrate was evaporated to dryness in a rotary evaporator (Büchi, Flawil, Switzerland). The extracts were weighed and dissolved in dimethyl sulfoxide (DMSO) to reach a concentration of 2 mg/mL, which was used in the in vitro experiments.
The enzyme inhibition assays conducted in this study included elastase, collagenase, hyaluronidase, XO, and prolyl POP inhibition and were performed using an ELISA microplate reader (Spectramax i3x microplate reader with Softmax® Pro Software for Windows 10; Molecular Devices, San Jose, USA). Elastase inhibition by the extracts was assessed using a modified spectrophotometric method based on Kraunsoe et al. (1996) and Lee et al. (2009). Collagenase inhibition was evaluated using the modified spectrophotometric method by Barrantes and Guinea 2003 [67], which was originally developed by Wart and Steinbrink (1981). The LOX inhibitory activities of the extracts were determined following the method of Chung et al. (2009), with minor modifications. XO inhibition was measured spectrophotometrically by monitoring the absorbance at 295 nm from uric acid formed during an enzymatic reaction. […]

[1] = Nitric oxide radical-scavenging activity
Description: as §1
The determination of the superoxide radical (O2^•−)-scavenging effect was conducted using the method described by Duh et al.. To assess the nitric oxide (NO)-scavenging effect, the method of Sreejayan and Rao was utilised with some modifications.

XO = details: cited from earlier work
xanthine oxidase (XO) = xanthine oxidase (XO) (Homo sapiens, UniProt P47989); assay: XO enzyme inhibition, spectrophotometric (uric acid formation at 295 nm); assay type: biochemical
Chain of xanthine oxidase (XO) (P47989 whole entry, species assumed): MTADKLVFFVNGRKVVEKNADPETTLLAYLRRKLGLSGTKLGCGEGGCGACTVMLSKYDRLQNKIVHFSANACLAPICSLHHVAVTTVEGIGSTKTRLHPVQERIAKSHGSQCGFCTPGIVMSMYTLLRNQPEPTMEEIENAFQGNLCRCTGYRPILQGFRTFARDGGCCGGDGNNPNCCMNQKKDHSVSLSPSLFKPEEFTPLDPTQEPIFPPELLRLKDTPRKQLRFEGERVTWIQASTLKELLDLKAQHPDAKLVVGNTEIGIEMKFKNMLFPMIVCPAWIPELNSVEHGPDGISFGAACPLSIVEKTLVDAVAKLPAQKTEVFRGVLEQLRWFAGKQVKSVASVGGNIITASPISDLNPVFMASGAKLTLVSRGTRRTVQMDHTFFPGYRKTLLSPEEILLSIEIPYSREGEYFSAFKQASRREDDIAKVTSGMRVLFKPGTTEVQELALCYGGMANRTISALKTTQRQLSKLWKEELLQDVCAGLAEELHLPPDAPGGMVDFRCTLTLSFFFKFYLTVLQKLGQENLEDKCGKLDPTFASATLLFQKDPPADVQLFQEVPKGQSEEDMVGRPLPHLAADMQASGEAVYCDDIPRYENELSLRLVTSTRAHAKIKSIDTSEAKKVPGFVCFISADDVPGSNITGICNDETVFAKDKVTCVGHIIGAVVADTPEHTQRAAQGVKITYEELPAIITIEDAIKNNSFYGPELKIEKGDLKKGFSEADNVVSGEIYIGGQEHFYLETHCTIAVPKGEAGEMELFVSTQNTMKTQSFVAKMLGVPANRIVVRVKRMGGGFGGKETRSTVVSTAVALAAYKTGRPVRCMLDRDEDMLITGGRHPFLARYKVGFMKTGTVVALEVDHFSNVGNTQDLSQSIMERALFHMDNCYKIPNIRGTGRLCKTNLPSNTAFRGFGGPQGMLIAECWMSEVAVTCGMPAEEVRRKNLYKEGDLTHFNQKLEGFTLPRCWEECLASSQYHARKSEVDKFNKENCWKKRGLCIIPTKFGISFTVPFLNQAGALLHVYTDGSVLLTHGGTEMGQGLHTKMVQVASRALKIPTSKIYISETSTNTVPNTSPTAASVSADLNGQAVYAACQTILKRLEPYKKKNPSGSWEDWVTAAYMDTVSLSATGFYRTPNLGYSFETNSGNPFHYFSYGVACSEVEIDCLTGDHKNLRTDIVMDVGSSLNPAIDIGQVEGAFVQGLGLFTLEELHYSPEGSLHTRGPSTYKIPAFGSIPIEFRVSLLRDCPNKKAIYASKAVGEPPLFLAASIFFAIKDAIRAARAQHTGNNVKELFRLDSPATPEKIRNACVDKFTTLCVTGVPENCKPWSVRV
Description: as §1
(§2) The enzyme inhibition assays conducted in this study included elastase, collagenase, hyaluronidase, XO, and prolyl POP inhibition and were performed using an ELISA microplate reader (Spectramax i3x microplate reader with Softmax® Pro Software for Windows 10; Molecular Devices, San Jose, USA).

POP enzyme = details: cited from earlier work
[2] = design: method as in earlier work; details: cited from earlier work
LOX = test system: LOX; design: method as in PMID 27316769; details: dose-dependent; read-out: LOX inhibition IC50; cited from earlier work
hyaluronidase = assay: Hyaluronidase enzyme inhibition assay; assay type: biochemical
Description: as §1, §2

Compound: c1cnc2c(c1)ccc1cccnc12 [1,10-phenanthroline]
Collagenase inhibition IC50 (collagenase): 27.95 ± 0.3 mg/L | Collagenase Enzyme Inhibition (% Inhibition ± S.D.), reference (collagenase; References (1 mg/mL)): 87.39 ± 2.85%

Compound: Oc1ncnc2[nH]ncc12 [allopurinol, reference compound]
IC50 (XO; read-out: XO inhibition IC50): 4.05 µM | inhibition at 25 µg/mL (xanthine oxidase (XO); read-out: XO Enzyme Inhibition (% Inhibition ± S.D.)): 91.6 ± 1.3% | inhibition at 500 µg/mL (xanthine oxidase (XO); read-out: XO Enzyme Inhibition (% Inhibition ± S.D.), reference): 91.6 ± 1.3%

Compound: COc1ccc2cc3[n+](cc2c1OC)CCc1cc2c(cc1-3)OCO2 [berberine]
IC50 (POP enzyme; read-out: POP inhibition IC50): 142 ± 21.5 µM

Compound: O=c1c(O)c(-c2ccc(O)c(O)c2)oc2cc(O)cc(O)c12 [quercetin]
NO radical-scavenging activity IC50 [2]: 160 ± 10 mg/L

Compound: Oc1ccc2c(c1)OCO2 [sesamol]
IC50 (LOX): 51.8 µM

More lines, main results first:

Nitric oxide radical-scavenging IC50 [1]: 25.28 ± 2.98 mg/L
Compound: O=C1O[C@H]([C@@H](O)CO)C(O)=C1O [Vitamin C]
Nitric Oxide Radical-Scavenging Activity (% Inhibition ± S.D.), reference ([1]; Vitamin C (1 mg/mL)): 92.72 ± 0.10%

IC50 (xanthine oxidase (XO)): 40.1 µM
Compound: O=c1cc(-c2ccc(O)cc2)oc2cc(O)cc(O)c12 [apigenin]
IC50 (XO; competitive inhibitor, read-out: XO inhibition IC50): 3.57 µM

IC50 (xanthine oxidase (XO)): 49.8 µM
Compound: O=c1cc(-c2ccc(O)c(O)c2)oc2cc(O)cc(O)c12 [luteolin]
POP inhibition IC50 (POP enzyme): 0.17 ppm | IC50 (XO; flavonoids isolated from Blumea balsamifera L., read-out: XO inhibitory activity IC50): 2.38 ± 0.01 µM | IC50 (XO; read-out: XO inhibition IC50): 0.96 µM

IC50 (xanthine oxidase (XO)): 130 µM
Compound: O=C1C[C@@H](c2ccc(O)cc2)Oc2cc(O)cc(O)c21 [naringenin]
inhibitory activity against the POP enzyme (in words) (POP enzyme): did not exhibit inhibitory activity | inhibitory activity against XO (in words) (XO): moderate inhibitory activity | IC50 (XO; read-out: XO inhibition IC50): 4.57 µM

Hyaluronidase inhibition IC50 (hyaluronidase): 2.31 ± 0.73 mg/L | Hyaluronidase Enzyme Inhibition (% Inhibition ± S.D.), reference (hyaluronidase; References (1 mg/mL)): 92.51 ± 3.53%
Compound: tannic acid

Reference: paper PMC12195836, “From Ethnopharmacology to Active Compound: Effects of Traditional Plant Extracts on Varicose Vein-Related Enzymes and Isolation of Active Flavonoids from Helichrysum plicatum DC. subsp. plicatum” (Pharmaceuticals, 2025)
